Tested on: HCT116-C9
Assay: Gene expression analysis using DNA microarray (GeneChip Hu6800)
Format: cell-based, human
Settings: HCT116-C9, 8 μM, 12 hours, compared with cells without drug; change of 1.8 times or more counted
Method: All cells were cultured in RPMI-1640 medium supplemented with 10% of fetal bovine serum, 100 units/ml of penicillin and 100 μg/ml of streptomycin at 37° C. under 5% CO2.
E7070, or ER-35748 or ER-68487 represented by the structural formula shown below was added to the media of an E7070-susceptible strain HCT116-C9 and an E7070-resistant strain HCT116-C9-C1 at a concentration of 8 μM and the cells were cultured. Then, cells were recovered after 0, 3, 6 and 12 hours. Further, the cells were also cultured for 12 hours without adding the drug and recovered.
Total RNA was extracted from these cells and subjected to the subsequent analyses. The RNA extracted from the cells cultured for 12 hours with the drug and the RNA from extracted the cells cultured for 12 hours without the drug were used for the gene expression analysis using a DNA microarray described in Example 2. HCT116-C9 was a substrain isolated from HCT116 derived from human colon cancer (American Type Culture Collection, Manassas, Va., U.S.A.), and HCT116-C9-C1 was an E7070-resistant substrain obtained by culturing this HCT116-C9 in the presence of E7070 with gradually increasing the E7070 concentration.
Total RNA was extracted from the recovered cells by using TRIZOL Reagent (Life Technologies Oriental) according to the attached operation manual.
Each RNA obtained in Example 1 was dissolved in 100 μl of sterilized water treated with diethyl pyrocarbonate (DEPC) and further purified by using RNeasy Column (QIAGEN), and double-stranded cDNA was synthesized by using SuperScript Choice System (Life Technologies Oriental) and a T7-d(T)24 primer.
First, to 10 μg of RNA, 5 μM T7-d(T)24 primer, 1×First strand buffer, 10 mM DTT, 500 μM dNTP mix and 20 units/μl of SuperScript II Reverse Transcriptase were added and the mixture was allowed to react at 42° C. for 1 hour to synthesize single-stranded DNA. Subsequently, to the DNA, 1×Second strand buffer, 200 μM dNTP mix, 67 U/ml of DNA ligase, 270 U/ml of DNA polymerase I and 13 U/ml of RNase H were added and the mixture was allowed to react at 16° C. for 2 hours to synthesize double-stranded cDNA. Further, to the cDNA, 67 U/ml of T4 DNA polymerase I was added and the mixture was allowed to react at 16° C. for 5 minutes and then 10 μl of 0.5 M EDTA was added to terminate the reaction.
The obtained cDNA was purified with phenol/chloroform, and a labeling reaction with biotinylated UTP and CTP was carried out by using RNA Transcript Labeling Kit (Enzo Diagnostics) according to the attached operation manual. The reaction product was purified with Rneasy Column and heated in 200 mM Tris/acetate buffer (pH 8.1), 150 mM magnesium acetate, 50 mM potassium acetate at 94° C. for 35 minutes to obtain fragment cRNA.
The fragmented cRNA was hybridized with GeneChip Hu6800 (Affymetrix) in 100 mM MES, 1 M sodium salt, 20 mM EDTA and 0.01% Tween 20 at 45° C. for 16 hours. After the hybridization, the GeneChip was washed and stained according to the protocol EukGE-WS2 attached to Affymetrix Fluidics Station. For the staining, streptavidin-phycoerythrin and biotinylated goat anti-streptavidin antibody were used. The stained GeneChip was scanned by using HP Argon Ion Laser Confocal Scanner (Hewlett Packard) to measure its fluorescence intensity. The fluorescence was measured at 570 nm by using an excitation light at 488 nm.
The quantitative data analyses were all conducted by using GeneChip Software (Affymetrix). To quantify RNA, an average of “differences [(Perfect match hybridization signal)−(Mismatch signal)]” was obtained for each probe family.
E7070, or ER-35748 or ER-68487 was added to a medium for HCT116-C9 at a concentration of 8 μM and culture was performed. The results of analysis of RNA extracted from the cells at 12 hours by using GeneChip were compared with the results of RNA analysis for HCT116-C9 cells obtained in the same manner except for not adding the drug. […]

Row | SMILES | expression levels of the genes listed in Table 1 | expression levels of the genes listed in Table 2
1 | N#Cc1ccc(S(=O)(=O)Nc2cccc3c(Cl)c[nH]c23)cc1 [ER-35748] | increased | decreased
2 | N#Cc1ccc(S(=O)(=O)Nc2cccc3c(C#N)c[nH]c23)cc1 [ER-68487] | increased | decreased

Source: patent publication US7445892B2, “Method of testing anticancer agent-sensitivity of tumor cells” (Eisai Co., Ltd., priority 2000, dated 2008)
